Test results published in patent US20230144203A1 (SHANGHAI SENHUI MEDICINE CO., LTD., priority 2020, published 2023).
Each block holds one molecule with its values, some of them ahead of it.

Tests used:
[1] = test system: human diffuse large B-cell lymphoma WSU-DLCL2; assay: Test Example 3 nude mouse subcutaneous xenograft tumor efficacy
Procedure: Human diffuse large B-cell lymphoma WSU-DLCL2 cells were purchased from DSMZ. WSU-DLCL2 cells were cultured in a 10-cm petri dish with RPMI 1640 medium (Gibco) containing 10% fetal bovine serum, penicillin and streptomycin (GIBCO, Cat #15070-063) and incubated in an incubator at 37° C. with 5% CO2. Subculturing was carried out 2-3 times a week and cells were collected, counted and inoculated when the cells grew in long-term exponentially.
Female BALB/c-nu nude mice with a growth period of 28-35 days was purchased from Beijing Huafukang Biotechnology Co., Ltd. Production license No.: SCXK (Beijing) 2019-0008, animal certification No.: 1103221911012510. Housing environment: SPF grade.
Each nude mouse was subcutaneously inoculated with 2.0×10^7 WSU-DLCL2 cells, and after the tumor volume grew to −100 mm^3, the animals were grouped according to tumor volume (D0). The mice was administrated by intravenous injection (IV), and the administration volume was 10 mL/kg; specific dosages and schedules are shown in Table 3. The tumor volumes and body weights were measured twice a week and the results were recorded.
The experimental index is to study the influence of the drug on the tumor growth, and the specific index is T/C % or tumor growth inhibition TGI (%). Tumor diameters were measured twice weekly with a vernier caliper and tumor volume (V) was calculated according to the following formula:
where a and b represent length and width, respectively. T/C (%)=(T−T0)/(C−C0)×100, where T and C were tumor volumes at the end of the experiment; T0 and C0 were tumor volumes at the beginning of the experiment.
If the volume of tumor shrank compared with its initial volume, i.e., T<T0 or C<C0, it was defined as partial regression(PR) of tumor; if the tumor completely disappeared, it was defined as complete regression (CR) of tumor.
Unless otherwise indicated, comparison between tumor volumes of the two groups was made by two-tailed student's t-test, with P<0.05 defined as statistically significant difference.

[2] = test system: MDA-MB-468; assay: Test Example 1 in vitro cytotoxic activity screening (CTG); format: cell-based; conditions: for Maximum inhibition: MDA-MB-468, CTG
Procedure: (§1) The CTG is used for detecting the ATP content in the experiment, and the survival condition of the tumor cells is reflected. […] The killing effect of the toxin molecule was then assayed according to this condition. 1.2. Selection of cell lines
(§2) According to the purpose of the experiment, two disease models of breast cancer and NSCLC were selected, and SKBR3 tumor cells (HER2+, ATCC, Cat #HTB-30), MDA-MB-468 (HER2-, ATCC, Cat #HTB-132) and A549 (human non-small cell lung cancer cells, ATCC, Cat #CCL-185) were selected for screening.
(§3) 2) Cell plating: A549 cells were digested with trypsin, and the cells were terminated with the above medium, and 4.3×10^5, 7.2×10^5 and 11.5×10^5 cells were added to the medium to give a final volume of 26 mL. 180 μL of cell suspension was added to each well in columns 2 to 11 of a 96-well plate (coming, Cat #3903) to give cell densities of 3K, 5K and 8K per well. Wells in column 12 were filled with 200 μL of culture medium and the remaining wells were filled with PBS. The above operations were repeated on the SKBR3 and MDA-MB-468 cells. The sample was duplicated.
(§4) 2 mM of stock solution (stock diluted 10-fold in DMSO) was prepared in column 1 of drug preparation plate 1, then 10-fold dilution in DMSO by gradient was performed in column 10, and the wells in column 11 were filled with DMSO. 95 μL of corresponding culture solution was added into each well from column 2 to column 11 of the drug preparation plate 2, 5 μL of solution was pipetted from column 2 to column 11 of drug preparation plate 1 to drug preparation plate 2, the solution was mixed well, 20 μL of solution was pipetted, added into the plated cells, and continuously cultured for 3 days and 5 days.
(§5) 4) CTG assay (Cell Titer-Glo™, luminescent cell viability assay, Promega): the cell plates were removed on day 3 and day 5, and balanced to room temperature. 90 μL of CTG was added into each well and reacted at room temperature for 10 min in the dark. The absorption value was read using a microplate reader and IC50 was calculated.

[3] = test system: SKBR3 tumor cells; assay: as above; format: cell-based; conditions: for Maximum inhibition: SKBR3, CTG
Procedure: as §1, §2, §3, §4, §5

[4] = in vivo; conditions: male, beagle, dog, iv, 0.5 mg/kg
Procedure: The pharmacokinetic performance in beagles of the compounds of the present disclosure was studied and the pharmacokinetic profile thereof was evaluated.
Male 6 beagles were divided into 2 groups of 3, purchased from Shanghai Medicilon Inc., and subjected to administration test.
Plasma samples were stored in a refrigerator at −80° C. prior to testing. […] The plasma concentration of the test compounds in beagles after drug injection was determined: after administration, 25 μL of beagle plasma at various times after administration was taken, and added with 50 μL (100 ng/mL) of internal standard solution camptothecin (National Institutes for Drug Control) and 200 μL of acetonitrile. The mixture was vortexed for 5 min and centrifuged for 10 min (3700 rpm/min). 3 to 4 μL of the supernatant of the plasma sample was subjected to LC/MS assay (API4000 triple quadrupole tandem mass spectrometer (No. 2), Applied Biosystems, USA; Shimadzu, LC-30AD ultra high performance liquid chromatography system, Shimadzu, Japan.) The analysis was performed.

[5] = test system: A549; assay: Test Example 1 in vitro cytotoxic activity screening (CTG); format: cell-based, human; conditions: for Maximum inhibition: A549, CTG
Procedure: as §1, §2, §3, §4, §5

[6] = biological target: T1, human CD79B (Homo sapiens, UniProt P40259); assay: ELISA of culture supernatant of anti-human CD79B hybridoma positive clones; format: binding; conditions: 1 μg/mL coated antigen
T1 construct: the extracellular region (ECD) of which comprises 159 amino acids (Met1-Asp159); human Fc domain (hFc) OR His tag; made in house; host or cells: 293F cells
T1 sequence (P40259 29-159 limits assumed): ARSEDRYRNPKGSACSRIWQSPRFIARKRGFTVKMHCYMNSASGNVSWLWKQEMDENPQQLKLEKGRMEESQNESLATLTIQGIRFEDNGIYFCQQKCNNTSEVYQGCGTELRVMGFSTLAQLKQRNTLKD
Procedure: (§6) 3) ELISA screening: the 96-well plates were correspondingly labeled before experiment, and coated with 1 μg/mL antigen at 50 μL per well in a refrigerator at 4° C. overnight. The next day, the coated antigen plates from the previous day were removed and washed once with a plate washer (cleaning solution: 1×PBST). After washing, the plates were blocked with 1% BSA blocking solution prepared in 1×PBST at 37° C. for 1 h. After being washed with 1×PBST cleaning solution for 3 times, the plates were added with 50 μL cell supernatant to be detected, and incubated in a 37° C. incubator for 1 h. After the plates were washed with 1×PBST cleaning solution for 3 times, added with 100 μL of goat anti-mouse secondary antibody diluted at 1:5000, and incubated in an incubator at 37° C. for 0.5 h. The plates were washed, the TMB color developing solution A solution and B solution in a ratio of 1:1 was taken for to color development. The color development reaction was terminated with 1 N hydrochloric acid for 15 min. Fluorescence value was read at 450 nm on a Spectra Max M5 multi-functional plate reader.
5) Hybridoma positive clone identification: after fusion and subclone screening of mouse splenocytes, multiple specific antibodies against human CD79B antigen were obtained, and the antibodies from the 17 strains of hybridomas having the highest binding to ELISA and FACS were produced and purified. […]

[7] = biological target: T1, human CD79B; assay: ELISA assay on purified anti-human CD79B mouse monoclonal antibodies; format: binding
Procedure: as §6, with “2)” for “3)”, “assay on anti-human CD79B mouse monoclonal antibodies:” for “screening:”, “of diluted antibody at 1:10 at 100 nM,” for “cell supernatant to be detected,”

[8] = biological target: T2, human CD79B (Homo sapiens, UniProt P40259); assay: FACS of culture supernatant of anti-human CD79B hybridoma positive clones on DOHH2 cells; format: binding
T2 construct: endogenous in cells; host or cells: DOHH2
T2 sequence (P40259 29-229): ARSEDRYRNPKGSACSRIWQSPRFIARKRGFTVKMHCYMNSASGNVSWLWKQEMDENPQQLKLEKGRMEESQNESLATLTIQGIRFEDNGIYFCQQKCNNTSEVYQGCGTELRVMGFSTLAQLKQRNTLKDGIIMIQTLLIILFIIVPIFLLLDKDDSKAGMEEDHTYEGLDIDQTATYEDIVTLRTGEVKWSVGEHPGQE
T2 sequence (P11912 33-226 partner): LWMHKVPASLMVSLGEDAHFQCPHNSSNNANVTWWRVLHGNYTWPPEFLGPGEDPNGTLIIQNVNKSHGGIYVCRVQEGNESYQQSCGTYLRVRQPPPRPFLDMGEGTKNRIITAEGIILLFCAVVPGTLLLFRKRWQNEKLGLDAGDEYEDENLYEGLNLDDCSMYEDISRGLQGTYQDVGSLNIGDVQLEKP
Procedure: (§7) 4) FACS screening: after centrifugation, the cell suspension of DOHH2 was resuspended in PBS containing 0.1% BSA, counted, added with the test cell supernatant and incubated at room temperature for 60 min. The cells were washed three times, then added with Anti-Mouse IgG (Fc specific)-FITC secondary antibody, and incubated at room temperature for 30 min in the dark. The cells were washed three times, gently resuspended in PBS containing 0.1% BSA, and then assayed using the machine.
5) Hybridoma positive clone identification: after fusion and subclone screening of mouse splenocytes, multiple specific antibodies against human CD79B antigen were obtained, and the antibodies from the 17 strains of hybridomas having the highest binding to ELISA and FACS were produced and purified. Meanwhile, specific antibodies against monkey CD79B antigen were obtained, and the 4 strains of hybridomas having the highest binding to ELISA and FACS were taken for production and purification of antibodies. mIgG was used as negative control in the both assays.

[9] = biological target: T2, human CD79B; assay: FACS assay on purified anti-human CD79B mouse monoclonal antibodies (DOHH2 cells); format: binding
Procedure: as §7, with “3)” for “4)”, “assay on anti-human CD79B mouse monoclonal antibodies:” for “screening:”, “100 μL of antibody diluted 1:10 at 100 nM” for “the test cell supernatant”, “1 h.” for “60 min.”

Molecule: polatuzumab [Polivy]
Tolerability in tumor-bearing mice ([1]; 1 mg/kg IV at D0, no significant weight loss): could well tolerate | Mean tumor volume (mean ± SEM) ([1]; D0, 1 mg/kg IV at D0): 108.07 ± 1.31 mm^3 | Mean tumor volume (mean ± SEM) ([1]; D17, 1 mg/kg IV at D0): 550.88 ± 52.37 mm^3 | T/C % ([1]; D17, 1 mg/kg IV at D0): 63% | Tumor inhibition rate (%) ([1]; D17, 1 mg/kg IV at D0): 37%

Molecule: C=C1C[C@@H]2CC[C@@]34C[C@H]5O[C@H]6[C@@H](O3)[C@H]3O[C@H](CC[C@@H]3O[C@H]6[C@H]5O4)CC(=O)C[C@@H]3[C@@H](OC)[C@@H](C[C@H](O)CN)O[C@H]3C[C@H]3O[C@@H](CC[C@@H]1O2)C[C@@H](C)C3=C [Eribulin, eribulin, reference compound]
Maximum inhibition [2]: 87.47% | Maximum inhibition [3]: 94.90% | concentration at 5 min [4]: 217 ng/mL | Maximum inhibition [5]: 81.50%

Molecule: C=C1C[C@@H]2CC[C@@]34C[C@H]5O[C@H]6[C@@H](O3)[C@H]3O[C@H](CC[C@@H]3O[C@H]6[C@H]5O4)CC(=O)C[C@@H]3[C@@H](OC)[C@@H](C[C@@H](CN)OC)O[C@H]3C[C@H]3O[C@@H](CC[C@@H]1O2)C[C@@H](C)C3=C [Compound D-1]
IC50 ([2]; Homo sapiens, MDA-MB-468): 0.183 nM | Maximum inhibition [2]: 88.01% | IC50 ([3]; Homo sapiens, SK-BR-3): 0.205 nM | Maximum inhibition [3]: 96.87% | AUC(0-t) ([4]; in vivo): 433 ng·h/mL | MRT ([4]; in vivo): 41.1 h | Vd ([4]; in vivo): 22 L/kg | clearance ([4]; in vivo): 8.9 mL/min/kg | concentration at 5 min ([4]; in vivo): 82.1 ng/mL | half-life ([4]; in vivo): 29.3 h | Maximum inhibition [5]: 81.34% | IC50 ([5]; Homo sapiens, A549): 0.515 nM

Results (OD450) [6]: 3.41 | ELISA binding capacity [7]: highest ELISA binding capacity | Mean fluorescence value [8]: 10036 | FACS binding capacity [9]: highest FACS binding capacity
B1: mAb015: anti-human CD79B mouse monoclonal antibody, VH SEQ ID NO: 3, VL SEQ ID NO: 4 (antibody, V domains shown)
VH: QVQLQQSGAELARPGASVKLSCKASGSSFTSYGINWVKQRTGQGLEWIGEIFPRSGNTYYNEKFEGKATLTADKSSSTAYMELRSLTSEDSAVYFCAKGDLGDFDYWGQGTTLTVSS
VL: DFLMTQTPLSLPVRLGDQASISCRSSQSIVHSDGNTYFEWYLQKPGQSPKLLIYKVSNRFSGVPDRFSGSGSGTDFTLKISRVEAEDLGVYYCFQGSHVPWTFGGGTKLEIK
